Experimental data published in PMC7224190, “Pharmacological inhibition of PRMT7 links arginine monomethylation to the cellular stress response” (Nature Communications, 2020).

How the values were obtained:
Test in all cases: biochemical
Design in all cases: radiometric methyltransferase selectivity assay with tritiated SAM, per cent activity
Details in all cases: read-out: % of control remaining
NSD2 = biological target: T1, NSD2 (Homo sapiens, UniProt O96028)
T1 sequence (O96028 1-1365): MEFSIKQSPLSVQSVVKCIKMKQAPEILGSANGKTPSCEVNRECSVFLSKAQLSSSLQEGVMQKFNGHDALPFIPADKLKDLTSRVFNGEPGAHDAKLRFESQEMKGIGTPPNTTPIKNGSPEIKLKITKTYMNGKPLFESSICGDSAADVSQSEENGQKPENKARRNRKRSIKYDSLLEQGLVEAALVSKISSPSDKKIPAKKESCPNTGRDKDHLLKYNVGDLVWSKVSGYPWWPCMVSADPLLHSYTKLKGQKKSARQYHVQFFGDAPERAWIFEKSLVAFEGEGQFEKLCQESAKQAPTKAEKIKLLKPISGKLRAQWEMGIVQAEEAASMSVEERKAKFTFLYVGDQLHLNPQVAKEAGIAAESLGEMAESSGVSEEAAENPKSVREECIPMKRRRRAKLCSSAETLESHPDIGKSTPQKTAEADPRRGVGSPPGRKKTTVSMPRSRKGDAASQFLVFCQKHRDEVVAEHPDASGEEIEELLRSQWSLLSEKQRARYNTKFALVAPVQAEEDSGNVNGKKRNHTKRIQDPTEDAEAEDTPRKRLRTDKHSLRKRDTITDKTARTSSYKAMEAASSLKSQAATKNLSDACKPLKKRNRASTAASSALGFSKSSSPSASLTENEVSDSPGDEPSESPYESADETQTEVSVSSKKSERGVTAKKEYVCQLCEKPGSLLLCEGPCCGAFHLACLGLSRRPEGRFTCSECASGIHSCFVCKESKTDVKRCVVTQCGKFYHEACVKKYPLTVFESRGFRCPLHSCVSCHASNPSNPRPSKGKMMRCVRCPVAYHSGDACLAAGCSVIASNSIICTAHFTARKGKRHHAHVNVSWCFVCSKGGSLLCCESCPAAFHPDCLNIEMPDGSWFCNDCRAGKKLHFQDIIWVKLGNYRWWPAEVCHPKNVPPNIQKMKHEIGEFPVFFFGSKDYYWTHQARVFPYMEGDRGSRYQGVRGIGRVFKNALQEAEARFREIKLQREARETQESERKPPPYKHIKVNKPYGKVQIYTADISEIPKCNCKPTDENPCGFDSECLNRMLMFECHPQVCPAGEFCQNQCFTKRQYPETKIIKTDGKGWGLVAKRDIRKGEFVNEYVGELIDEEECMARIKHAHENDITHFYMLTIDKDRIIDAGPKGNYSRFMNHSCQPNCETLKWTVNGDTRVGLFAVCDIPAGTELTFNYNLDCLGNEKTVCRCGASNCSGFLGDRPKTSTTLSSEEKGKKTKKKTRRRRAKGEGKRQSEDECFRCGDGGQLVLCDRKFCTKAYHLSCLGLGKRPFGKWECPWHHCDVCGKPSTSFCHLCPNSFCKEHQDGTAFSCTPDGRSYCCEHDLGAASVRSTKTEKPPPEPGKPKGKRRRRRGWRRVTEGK
Procedure: (§1) The methyltransferase selectivity was assessed at two compound concentrations of 1 and 10 μM by radiometric assays using tritiated-SAM. For methyltransferases: MLL1, MLL3, EZH1 (PRC2), and EZH2 (PRC2), G9a, GLP, SUV39H1, SUV39H2, SUV420H1, SUV420H2, SETD2, SETD8, SETDB1, SETD7, PRMT1, PRMT3, PRMT4, PRMT5/ MEP50 complex, PRMT6, PRMT7, PRMT8, PRMT9, PRDM9, SMYD2, SMYD3, DNMT1, and BCDIN3D the incorporation of a tritium-labeled methyl group into biotinylated substrate was monitored using scintillation proximity assay (SPA). Briefly, a 10 μL reaction containing ^3H-SAM and substrate at concentrations close to the apparent Km values for each enzyme (balanced conditions) was prepared. The reactions were quenched with 10 μL of 7.5 M guanidine hydrochloride; 180 μL of 20 mM Tris buffer (pH 8.0) were added, and the mixture was transferred to a 96-well FlashPlate and incubated for 1 h. The counts per minute (CPM) was measured on a TopCount plate reader. The CPM in the absence of compound or enzyme was defined as 100% activity and background (0%), respectively, for each dataset[74]–[76]. Selectivity of SGC8158 against 342 kinases was evaluated in a kinase panel TR-FRET assay at 1 and 0.1 μM compound in duplicates as described before. Briefly, tagged kinases were incubated with compound and staurosporine-based fluorescent probe where the binding was detected using Tb conjugated anti-tag antibody energy transfer to the probe. Excitation wavelength was 337 nm and fluorescent emission signal was measured for Tb (486 nm) and fluorescent probe (BODIPY, 515 nm). Specific and non-specific binding was determined in the absence and presence of unlabeled staurosporine.

NSD1 = NSD1 (Homo sapiens, UniProt Q96L73)
NSD1, sequence (Q96L73 whole entry): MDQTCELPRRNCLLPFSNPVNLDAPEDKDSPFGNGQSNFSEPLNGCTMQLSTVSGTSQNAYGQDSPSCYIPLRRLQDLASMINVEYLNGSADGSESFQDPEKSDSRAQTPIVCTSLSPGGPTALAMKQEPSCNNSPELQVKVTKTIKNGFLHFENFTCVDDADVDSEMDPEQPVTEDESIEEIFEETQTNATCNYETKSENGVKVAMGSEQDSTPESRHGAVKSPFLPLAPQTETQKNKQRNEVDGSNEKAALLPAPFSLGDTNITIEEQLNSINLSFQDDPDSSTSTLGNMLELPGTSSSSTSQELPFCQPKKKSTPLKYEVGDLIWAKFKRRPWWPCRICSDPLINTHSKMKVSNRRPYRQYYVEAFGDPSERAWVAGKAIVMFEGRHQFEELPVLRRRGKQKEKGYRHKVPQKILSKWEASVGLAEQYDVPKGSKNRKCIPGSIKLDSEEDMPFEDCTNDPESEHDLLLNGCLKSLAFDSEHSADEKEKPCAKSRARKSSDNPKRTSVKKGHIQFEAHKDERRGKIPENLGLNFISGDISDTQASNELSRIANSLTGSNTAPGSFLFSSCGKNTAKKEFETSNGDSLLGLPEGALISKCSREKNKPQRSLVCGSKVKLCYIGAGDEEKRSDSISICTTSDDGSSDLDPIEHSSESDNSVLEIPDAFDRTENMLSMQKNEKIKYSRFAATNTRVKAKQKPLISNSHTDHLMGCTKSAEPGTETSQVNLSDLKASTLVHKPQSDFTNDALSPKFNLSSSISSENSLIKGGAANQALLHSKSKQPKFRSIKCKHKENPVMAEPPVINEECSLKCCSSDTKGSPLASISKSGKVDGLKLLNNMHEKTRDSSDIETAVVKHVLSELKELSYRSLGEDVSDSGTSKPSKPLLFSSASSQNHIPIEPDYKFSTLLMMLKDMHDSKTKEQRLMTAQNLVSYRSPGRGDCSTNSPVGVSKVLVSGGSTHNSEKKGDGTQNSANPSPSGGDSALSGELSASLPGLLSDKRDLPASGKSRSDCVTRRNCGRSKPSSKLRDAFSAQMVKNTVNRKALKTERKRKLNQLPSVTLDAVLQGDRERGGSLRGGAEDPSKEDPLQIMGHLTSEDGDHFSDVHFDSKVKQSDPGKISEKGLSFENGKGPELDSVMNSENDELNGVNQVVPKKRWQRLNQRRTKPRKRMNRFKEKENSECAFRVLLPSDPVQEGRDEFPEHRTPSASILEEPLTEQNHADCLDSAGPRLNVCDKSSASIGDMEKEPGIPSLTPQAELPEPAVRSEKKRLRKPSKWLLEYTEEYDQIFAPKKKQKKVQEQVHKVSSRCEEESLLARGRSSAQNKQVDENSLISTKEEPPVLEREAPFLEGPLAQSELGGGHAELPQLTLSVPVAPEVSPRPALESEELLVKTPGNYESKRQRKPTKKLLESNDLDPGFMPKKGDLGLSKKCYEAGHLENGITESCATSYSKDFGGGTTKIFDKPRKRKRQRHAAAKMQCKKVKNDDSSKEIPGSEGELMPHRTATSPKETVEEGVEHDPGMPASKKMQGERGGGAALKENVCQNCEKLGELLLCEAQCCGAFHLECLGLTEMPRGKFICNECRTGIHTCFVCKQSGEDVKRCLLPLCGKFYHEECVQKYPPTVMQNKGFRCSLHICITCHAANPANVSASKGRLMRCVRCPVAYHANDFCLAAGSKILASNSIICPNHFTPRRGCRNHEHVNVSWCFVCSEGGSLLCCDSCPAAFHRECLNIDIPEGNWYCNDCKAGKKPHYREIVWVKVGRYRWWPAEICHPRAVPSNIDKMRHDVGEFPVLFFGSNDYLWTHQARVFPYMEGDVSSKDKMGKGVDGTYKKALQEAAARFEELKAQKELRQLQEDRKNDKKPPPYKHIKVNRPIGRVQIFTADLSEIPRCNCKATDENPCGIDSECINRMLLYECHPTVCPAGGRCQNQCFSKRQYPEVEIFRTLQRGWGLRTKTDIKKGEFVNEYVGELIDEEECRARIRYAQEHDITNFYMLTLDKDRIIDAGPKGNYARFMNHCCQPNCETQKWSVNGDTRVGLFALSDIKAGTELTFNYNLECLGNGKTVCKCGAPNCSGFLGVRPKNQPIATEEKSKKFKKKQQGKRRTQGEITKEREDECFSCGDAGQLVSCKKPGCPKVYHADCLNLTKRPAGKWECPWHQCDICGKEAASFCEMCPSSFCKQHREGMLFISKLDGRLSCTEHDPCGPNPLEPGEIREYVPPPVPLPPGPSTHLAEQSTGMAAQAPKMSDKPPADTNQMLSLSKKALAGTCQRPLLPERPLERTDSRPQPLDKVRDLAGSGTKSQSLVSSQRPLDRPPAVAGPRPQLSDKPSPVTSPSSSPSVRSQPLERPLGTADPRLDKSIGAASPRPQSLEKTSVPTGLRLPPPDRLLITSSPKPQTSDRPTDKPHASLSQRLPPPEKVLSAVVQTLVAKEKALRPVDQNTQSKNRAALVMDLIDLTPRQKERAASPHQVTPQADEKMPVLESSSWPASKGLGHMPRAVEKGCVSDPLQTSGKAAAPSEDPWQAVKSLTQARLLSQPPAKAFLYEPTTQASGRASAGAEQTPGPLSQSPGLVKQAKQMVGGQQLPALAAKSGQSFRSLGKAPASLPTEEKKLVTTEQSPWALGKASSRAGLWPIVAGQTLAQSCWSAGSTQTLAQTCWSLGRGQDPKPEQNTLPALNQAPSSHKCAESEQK
Procedure: as §1

PRC2-EZH1 = PRC2-EZH1 (Homo sapiens, UniProt Q92800)
PRC2-EZH1, sequence (Q92800 whole entry): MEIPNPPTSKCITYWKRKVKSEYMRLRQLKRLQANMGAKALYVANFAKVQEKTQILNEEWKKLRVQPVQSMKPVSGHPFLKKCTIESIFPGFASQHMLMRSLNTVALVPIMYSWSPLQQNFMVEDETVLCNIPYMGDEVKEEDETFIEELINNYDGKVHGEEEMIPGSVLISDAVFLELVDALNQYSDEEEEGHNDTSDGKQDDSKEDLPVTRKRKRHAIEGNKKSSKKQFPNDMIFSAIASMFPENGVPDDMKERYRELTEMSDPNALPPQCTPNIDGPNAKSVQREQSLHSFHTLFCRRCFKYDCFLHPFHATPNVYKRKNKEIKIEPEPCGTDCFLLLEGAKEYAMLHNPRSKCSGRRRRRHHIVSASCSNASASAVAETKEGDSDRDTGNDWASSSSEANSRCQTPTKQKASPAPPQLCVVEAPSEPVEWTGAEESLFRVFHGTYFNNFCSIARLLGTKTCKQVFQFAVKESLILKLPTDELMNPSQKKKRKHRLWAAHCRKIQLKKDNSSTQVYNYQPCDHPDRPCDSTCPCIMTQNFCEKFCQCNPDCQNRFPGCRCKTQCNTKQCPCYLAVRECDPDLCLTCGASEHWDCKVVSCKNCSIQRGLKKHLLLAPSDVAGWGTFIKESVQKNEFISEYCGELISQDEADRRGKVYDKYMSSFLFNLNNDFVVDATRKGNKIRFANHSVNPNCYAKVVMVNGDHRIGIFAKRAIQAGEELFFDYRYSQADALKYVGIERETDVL
PRC2-EZH1, sequence (O75530 whole entry partner): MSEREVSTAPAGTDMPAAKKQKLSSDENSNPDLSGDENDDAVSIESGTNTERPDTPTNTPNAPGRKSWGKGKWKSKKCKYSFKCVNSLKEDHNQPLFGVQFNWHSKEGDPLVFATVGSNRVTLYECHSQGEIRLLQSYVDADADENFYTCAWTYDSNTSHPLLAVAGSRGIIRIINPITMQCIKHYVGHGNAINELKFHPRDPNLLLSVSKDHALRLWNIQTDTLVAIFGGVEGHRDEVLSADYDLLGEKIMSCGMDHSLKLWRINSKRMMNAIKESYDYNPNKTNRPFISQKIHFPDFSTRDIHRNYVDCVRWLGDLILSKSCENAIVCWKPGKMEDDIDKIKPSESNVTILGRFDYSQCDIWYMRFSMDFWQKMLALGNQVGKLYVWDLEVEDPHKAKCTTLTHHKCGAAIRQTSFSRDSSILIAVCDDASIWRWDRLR
PRC2-EZH1, sequence (Q15022 whole entry partner): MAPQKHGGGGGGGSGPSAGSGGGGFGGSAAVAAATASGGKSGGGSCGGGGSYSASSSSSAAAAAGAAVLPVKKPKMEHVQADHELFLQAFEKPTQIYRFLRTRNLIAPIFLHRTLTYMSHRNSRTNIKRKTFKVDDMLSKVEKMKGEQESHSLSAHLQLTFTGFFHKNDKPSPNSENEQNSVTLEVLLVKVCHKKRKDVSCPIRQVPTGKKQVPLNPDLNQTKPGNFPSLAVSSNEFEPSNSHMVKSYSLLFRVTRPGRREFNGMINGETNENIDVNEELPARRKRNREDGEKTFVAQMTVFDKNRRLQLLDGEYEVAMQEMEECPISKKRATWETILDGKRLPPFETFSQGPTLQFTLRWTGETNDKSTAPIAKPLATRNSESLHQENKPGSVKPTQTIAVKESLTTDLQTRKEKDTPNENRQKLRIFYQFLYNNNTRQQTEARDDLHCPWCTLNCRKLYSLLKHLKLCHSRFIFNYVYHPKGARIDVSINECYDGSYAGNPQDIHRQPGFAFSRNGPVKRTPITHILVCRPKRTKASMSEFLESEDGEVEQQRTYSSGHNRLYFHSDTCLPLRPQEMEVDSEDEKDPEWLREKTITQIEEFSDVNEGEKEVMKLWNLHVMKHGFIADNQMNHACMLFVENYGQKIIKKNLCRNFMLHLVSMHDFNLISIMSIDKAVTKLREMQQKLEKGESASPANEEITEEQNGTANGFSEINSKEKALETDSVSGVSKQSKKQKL
Procedure: as §1

| Compound | remaining activity at 1 µM (NSD2) [%] | remaining activity at 10 µM (NSD2) [%] | remaining activity at 1 µM (NSD1) [%] | remaining activity at 10 µM (NSD1) [%] | remaining activity at 1 µM (PRC2-EZH1) [%] | remaining activity at 10 µM (PRC2-EZH1) [%] |
| --- | --- | --- | --- | --- | --- | --- |
| CC1(C)O[C@@H]2[C@H](O1)[C@@H](CSCCCCNCc1cccc(-c3ccc(Cl)cc3)c1)O[C@H]2n1cnc2c(N)ncnc21 [SGC8158N] | 92 | 97 | 99 | 98 | 92 | 93 |
| Nc1ncnc2c1ncn2[C@@H]1O[C@H](CSCCCCNCc2cccc(-c3ccc(Cl)cc3)c2)[C@@H](O)[C@H]1O [SGC8158] | 106 | 101 | 104 | 99 | 106 | 100 |
